Measurements reported in PubChem BioAssay (NCI).
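Briefly, cells in 96-well plates were exposed to five compound concentrations for 48 h, and endpoints were estimated by linear interpolation. The concentration for full growth arrest is given as TGI.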

Legend:
Test in all cases: NCI-60 cell line screen, 48 h
786-0 renal = system: 786-0 renal
NCI-H226 lung = system: NCI-H226 lung
UACC-62 melanoma = system: UACC-62 melanoma
MALME-3M melanoma = system: MALME-3M melanoma
IGROV1 ovarian = system: IGROV1 ovarian
HL-60(TB) leukemia = system: HL-60(TB) leukemia
EKVX NSCLC = system: EKVX NSCLC
DMS 114 small cell lung = system: DMS 114 small cell lung
MOLT-4 leukemia = system: MOLT-4 leukemia
COLO 205 colon = system: COLO 205 colon
SK-MEL-5 melanoma = system: SK-MEL-5 melanoma
SK-MEL-28 melanoma = system: SK-MEL-28 melanoma
NCI-H522 lung = system: NCI-H522 lung
U251 CNS = system: U251 CNS
NCI-H460 lung = system: NCI-H460 lung
HT29 colon = system: HT29 colon
SN12C renal = system: SN12C renal
TK-10 renal = system: TK-10 renal
ACHN renal = system: ACHN renal
NCI-H23 lung = system: NCI-H23 lung
A498 renal = system: A498 renal
OVCAR-4 ovarian = system: OVCAR-4 ovarian
CAKI-1 renal = system: CAKI-1 renal
SNB-19 CNS = system: SNB-19 CNS
UO-31 renal = system: UO-31 renal
LOX IMVI melanoma = system: LOX IMVI melanoma
M19-MEL melanoma = system: M19-MEL melanoma
DLD-1 colon = system: DLD-1 colon
OVCAR-3 ovarian = system: OVCAR-3 ovarian
CCRF-CEM leukemia = system: CCRF-CEM leukemia
SK-OV-3 ovarian = system: SK-OV-3 ovarian
HOP-62 NSCLC = system: HOP-62 NSCLC
KM20L2 colon = system: KM20L2 colon
SNB-75 CNS = system: SNB-75 CNS
SF-295 CNS = system: SF-295 CNS
OVCAR-8 ovarian = system: OVCAR-8 ovarian
UACC-257 melanoma = system: UACC-257 melanoma
SK-MEL-2 melanoma = system: SK-MEL-2 melanoma
DMS 273 small cell lung = system: DMS 273 small cell lung
HCC-2998 colon = system: HCC-2998 colon
A549 NSCLC = system: A549 NSCLC
SW-620 colon = system: SW-620 colon
LXFL 529 NSCLC = system: LXFL 529 NSCLC
SF-268 CNS = system: SF-268 CNS
M14 melanoma = system: M14 melanoma
HCT-15 colon = system: HCT-15 colon
KM12 colon = system: KM12 colon
RPMI-8226 leukemia = system: RPMI-8226 leukemia
OVCAR-5 ovarian = system: OVCAR-5 ovarian
K-562 leukemia = system: K-562 leukemia
HCT-116 colon = system: HCT-116 colon
HOP-18 NSCLC = system: HOP-18 NSCLC
HS 578T breast = system: HS 578T breast
SR leukemia = system: SR leukemia
DU-145 prostate = system: DU-145 prostate
MDA-MB-435 = system: MDA-MB-435
MDA-N = system: MDA-N
BT-549 breast = system: BT-549 breast
PC-3 prostate = system: PC-3 prostate
T-47D breast = system: T-47D breast
SF-539 CNS = system: SF-539 CNS
MDA-MB-231 breast = system: MDA-MB-231 breast
NCI/ADR-RES ovarian = system: NCI/ADR-RES ovarian
RXF 393 renal = system: RXF 393 renal
HOP-92 NSCLC = system: HOP-92 NSCLC
MCF7 breast = system: MCF7 breast

Compound: CSC1=NC=CCN1C
- TGI (786-0 renal): > 100 µM
- TGI (NCI-H226 lung): > 100 µM
- TGI (UACC-62 melanoma): > 100 µM
- TGI (MALME-3M melanoma): > 100 µM
- TGI (IGROV1 ovarian): > 100 µM
- TGI (HL-60(TB) leukemia): > 100 µM
- TGI (EKVX NSCLC): > 100 µM
- TGI (DMS 114 small cell lung): > 100 µM
- TGI (MOLT-4 leukemia): > 100 µM
- TGI (COLO 205 colon): > 100 µM
- TGI (SK-MEL-5 melanoma): > 100 µM
- TGI (SK-MEL-28 melanoma): > 100 µM
- TGI (NCI-H522 lung): > 100 µM
- TGI (U251 CNS): > 100 µM
- TGI (NCI-H460 lung): > 100 µM
- TGI (HT29 colon): > 100 µM
- TGI (SN12C renal): > 100 µM
- TGI (TK-10 renal): > 100 µM
- TGI (ACHN renal): > 100 µM
- TGI (NCI-H23 lung): > 100 µM
- TGI (A498 renal): > 100 µM
- TGI (OVCAR-4 ovarian): > 100 µM
- TGI (CAKI-1 renal): > 100 µM
- TGI (SNB-19 CNS): > 100 µM
- TGI (UO-31 renal): > 100 µM
- TGI (LOX IMVI melanoma): > 100 µM
- TGI (M19-MEL melanoma): > 100 µM
- TGI (DLD-1 colon): > 100 µM
- TGI (OVCAR-3 ovarian): > 100 µM
- TGI (CCRF-CEM leukemia): > 100 µM
- TGI (SK-OV-3 ovarian): > 100 µM
- TGI (HOP-62 NSCLC): > 100 µM
- TGI (KM20L2 colon): > 100 µM
- TGI (SNB-75 CNS): > 100 µM
- TGI (SF-295 CNS): > 100 µM
- TGI (OVCAR-8 ovarian): > 100 µM
- TGI (UACC-257 melanoma): > 100 µM
- TGI (SK-MEL-2 melanoma): > 100 µM
- TGI (DMS 273 small cell lung): > 100 µM
- TGI (HCC-2998 colon): > 100 µM
- TGI (A549 NSCLC): > 100 µM
- TGI (SW-620 colon): > 100 µM
- TGI (LXFL 529 NSCLC): > 100 µM
- TGI (SF-268 CNS): > 100 µM
- TGI (M14 melanoma): > 100 µM
- TGI (HCT-15 colon): > 100 µM
- TGI (KM12 colon): > 100 µM
- TGI (RPMI-8226 leukemia): > 100 µM
- TGI (OVCAR-5 ovarian): > 100 µM
- TGI (K-562 leukemia): > 100 µM
- TGI (HCT-116 colon): > 100 µM
- TGI (HOP-18 NSCLC): > 100 µM

Compound: c1cc(-c2cnc(-c3ccc4c(c3)CCCO4)o2)ccn1
- TGI (HS 578T breast): 42.2 µM
- TGI (786-0 renal): 53 µM
- TGI (NCI-H226 lung): 31.7 µM
- TGI (UACC-62 melanoma): 31.7 µM
- TGI (MALME-3M melanoma): 30.6 µM
- TGI (IGROV1 ovarian): 36.5 µM
- TGI (HL-60(TB) leukemia): 21.9 µM
- TGI (EKVX NSCLC): 40.5 µM
- TGI (MOLT-4 leukemia): 22.2 µM
- TGI (COLO 205 colon): 33.1 µM
- TGI (SK-MEL-5 melanoma): 25.4 µM
- TGI (SK-MEL-28 melanoma): 32.2 µM
- TGI (NCI-H522 lung): 23.4 µM
- TGI (U251 CNS): 78.5 µM
- TGI (SR leukemia): 13.4 µM
- TGI (DU-145 prostate): 24.8 µM
- TGI (HT29 colon): 41.3 µM
- TGI (SN12C renal): 46.4 µM
- TGI (MDA-MB-435): 28.3 µM
- TGI (TK-10 renal): 42.1 µM
- TGI (MDA-N): 27.8 µM
- TGI (ACHN renal): 37.9 µM
- TGI (NCI-H23 lung): 30.2 µM
- TGI (BT-549 breast): 29.1 µM
- TGI (A498 renal): 25.8 µM
- TGI (OVCAR-4 ovarian): 42.3 µM
- TGI (CAKI-1 renal): 41.5 µM
- TGI (SNB-19 CNS): 40.9 µM
- TGI (UO-31 renal): 25.3 µM
- TGI (LOX IMVI melanoma): 29.7 µM
- TGI (OVCAR-3 ovarian): 33.5 µM
- TGI (CCRF-CEM leukemia): 29.7 µM
- TGI (PC-3 prostate): 24.4 µM
- TGI (SK-OV-3 ovarian): 57.3 µM
- TGI (T-47D breast): 47.2 µM
- TGI (SF-539 CNS): 21.8 µM
- TGI (MDA-MB-231 breast): 41 µM
- TGI (HOP-62 NSCLC): 30.1 µM
- TGI (SNB-75 CNS): 25.2 µM
- TGI (SF-295 CNS): 37.4 µM
- TGI (OVCAR-8 ovarian): 27.6 µM
- TGI (UACC-257 melanoma): 28.8 µM
- TGI (SK-MEL-2 melanoma): 24.8 µM
- TGI (A549 NSCLC): 51.5 µM
- TGI (SF-268 CNS): 33.2 µM
- TGI (M14 melanoma): 33 µM
- TGI (HCT-15 colon): 31.6 µM
- TGI (NCI/ADR-RES ovarian): 41.3 µM
- TGI (RPMI-8226 leukemia): 23.6 µM
- TGI (RXF 393 renal): 43.7 µM
- TGI (OVCAR-5 ovarian): 44.5 µM
- TGI (HOP-92 NSCLC): 49.4 µM
- TGI (MCF7 breast): 28.7 µM
- TGI (K-562 leukemia): 22.8 µM
- TGI (HCT-116 colon): 31.6 µM
